The values that follow come from patent US7541368B2, “Pyrazoles as inhibitors of tumor necrosis factor” (Aventis Pharmaceuticals Inc., priority 2003, dated 2009).

The subject of the assay is TNF-alpha release in THP-1 cells. Description: LPS-induced TNF-alpha release in THP-1 cells. The format is cell-based. The settings on record: Homo sapiens, THP-1, LPS-stimulated THP-1 cells; read-out: 50% inhibition in the LPS-induced TNF-alpha release in THP-1 cells assay at concentrations within the range. The procedure, abridged:
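Undifferentiated THP-1 monocytes (1×10^6 cells/ml, 1% FCS) preincubated 1 h at 37° C with compound (1×10^−9 to 1×10^−6 M, 0.3% DMSO), then stimulated with LPS (20 μg/ml) for 18 h. Supernatant TNF-alpha measured by sandwich ELISA (TMB read-out), interpolated from a log/log standard curve (0.125-16 ng/ml).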
For `Cc1ccc(-n2nc(C(C)(C)C)cc2NC(=O)Nc2ccc(CC3CCN(C(=O)C4CCCO4)CC3)cc2)cc1` (stereo not shown) [Compound A258, 1-(5-tert-Butyl-2-p-tolyl-2H-pyrazol-3-yl)-3-{4-[1-(tetrahydro-furan-2-carbonyl)-piperidin-4-ylmethyl]-phenyl}-urea], the IC50 was 0.01 to 0.5 µM.

As for `COc1ccc(C(=O)N2CCC(Cc3ccc(NC(=O)Nc4cc(C(C)(C)C)nn4-c4ccc(C)cc4)cc3)CC2)cc1OC` [Compound A261, 1-(5-tert-Butyl-2-p-tolyl-2H-pyrazol-3-yl)-3-{4-[1-(3,4-dimethoxy-benzoyl)-piperidin-4-ylmethyl]-phenyl}-urea], the IC50 was 0.01 to 0.5 µM.

In the case of `COc1ccc(CC(=O)N2CCC(Cc3ccc(NC(=O)Nc4cc(C(C)(C)C)nn4-c4ccc(C)cc4)cc3)CC2)cc1OC` [Compound A262, 1-(5-tert-Butyl-2-p-tolyl-2H-pyrazol-3-yl)-3-(4-{1-[2-(3,4-dimethoxy-phenyl)-acetyl]-piperidin-4-ylmethyl}-phenyl)-urea], the IC50 lay in the range of 0.01 to 0.5 µM.

Take `Cc1ccc(-n2nc(C(C)(C)C)cc2NC(=O)Nc2ccc(CC3CCN(C(=O)Cc4ccc5c(c4)OCO5)CC3)cc2)cc1` [Compound A263, 1-{4-[1-(2-Benzo[1,3]dioxol-5-yl-acetyl)-piperidin-4-ylmethyl]-phenyl}-3-(5-tert-butyl-2-p-tolyl-2H-pyrazol-3-yl)-urea]: the IC50 was 0.01 to 0.5 µM.

For the compound `COc1cc(OC)cc(C(=O)N2CCC(Cc3ccc(NC(=O)Nc4cc(C(C)(C)C)nn4-c4ccc(C)cc4)cc3)CC2)c1` [Compound A266, 1-(5-tert-Butyl-2-p-tolyl-2H-pyrazol-3-yl)-3-{4-[1-(3,5-dimethoxy-benzoyl)-piperidin-4-ylmethyl]-phenyl}-urea], the IC50 lay within 0.01 to 0.5 µM.

As to `Cc1ccc(-n2nc(C(C)(C)C)cc2NC(=O)Nc2ccc(CC3CCN(C(=O)c4cccc(C(C)C#N)c4)CC3)cc2)cc1` (stereo not shown) [Compound A272, 1-(5-tert-Butyl-2-p-tolyl-2H-pyrazol-3-yl)-3-(4-{1-[3-(cyano-methyl-methyl)-benzoyl]-piperidin-4-ylmethyl}-phenyl)-urea], the IC50 is 0.01 to 0.5 µM.

As for `Cc1ccc(-n2nc(C(C)(C)C)cc2NC(=O)Nc2ccc(CC3CCN(C(=O)CCc4ccco4)CC3)cc2)cc1` [Compound A274, 1-(5-tert-Butyl-2-p-tolyl-2H-pyrazol-3-yl)-3-{4-[1-(3-furan-2-yl-propionyl)-piperidin-4-ylmethyl]-phenyl}-urea], the IC50 is 0.01 to 0.5 µM.

For the compound `Cc1ccc(-n2nc(C(C)(C)C)cc2NC(=O)Nc2ccc(CC3CCN(C(=O)c4ccoc4)CC3)cc2)cc1` [Compound A286, 1-(5-tert-Butyl-2-p-tolyl-2H-pyrazol-3-yl)-3-{4-[1-(furan-3-carbonyl)-piperidin-4-ylmethyl]-phenyl}-urea], the IC50 was in the range of 0.01 to 0.5 µM.

Consider `COc1cccc(CC(=O)N2CCC(Cc3ccc(NC(=O)Nc4cc(C(C)(C)C)nn4-c4ccc(C)cc4)cc3)CC2)c1` [Compound A288, 1-(5-tert-Butyl-2-p-tolyl-2H-pyrazol-3-yl)-3-(4-{1-[2-(3-methoxy-phenyl)-acetyl]-piperidin-4-ylmethyl}-phenyl)-urea], for which the IC50 lay within 0.01 to 0.5 µM.

On to `Cc1ccc(-n2nc(C(C)(C)C)cc2NC(=O)Nc2ccc(CC3CCN(C(=O)c4cc(C)c(C)o4)CC3)cc2)cc1` [Compound A298, 1-(5-tert-Butyl-2-p-tolyl-2H-pyrazol-3-yl)-3-{4-[1-(4,5-dimethyl-furan-2-carbonyl)-piperidin-4-ylmethyl]-phenyl}-urea], for which the IC50 is 0.01 to 0.5 µM.

On to `Cc1ccc(-n2nc(C(C)(C)C)cc2NC(=O)Nc2ccc(CC3CCN(C(=O)c4ccc(-c5cnco5)cc4)CC3)cc2)cc1` [Compound A301, 1-(5-tert-Butyl-2-p-tolyl-2H-pyrazol-3-yl)-3-{4-[1-(4-oxazol-5-yl-benzoyl)-piperidin-4-ylmethyl]-phenyl}-urea], for which the IC50 fell in the range of 0.01 to 0.5 µM.

On to `Cc1ccc(-n2nc(C(C)(C)C)cc2NC(=O)Nc2ccc(CC3CCN(C(=O)c4ccc(OC(F)F)cc4)CC3)cc2)cc1` [Compound A306, 1-(5-tert-Butyl-2-p-tolyl-2H-pyrazol-3-yl)-3-{4-[1-(4-difluoromethoxy-benzoyl)-piperidin-4-ylmethyl]-phenyl}-urea], for which the IC50 was 0.01 to 0.5 µM.

For `Cc1ccc(-n2nc(C(C)(C)C)cc2NC(=O)Nc2ccc(CC3CCN(C(=O)c4ccc(N)c(OC(F)(F)F)c4)CC3)cc2)cc1` [Compound A309, 1-{4-[1-(4-Amino-3-trifluoromethoxy-benzoyl)-piperidin-4-ylmethyl]-phenyl}-3-(5-tert-butyl-2-p-tolyl-2H-pyrazol-3-yl)-urea], the IC50 was in the range of 0.01 to 0.5 µM.

On to `Cc1ccc(-n2nc(C(C)(C)C)cc2NC(=O)Nc2ccc(CC3CCN(C(=O)Cc4ccc(F)cc4)CC3)cc2)cc1` [Compound A314, 1-(5-tert-Butyl-2-p-tolyl-2H-pyrazol-3-yl)-3-(4-{1-[2-(4-fluoro-phenyl)-acetyl]-piperidin-4-ylmethyl}-phenyl)-urea], for which the IC50 lay within 0.01 to 0.5 µM.

On to `Cc1ccc(-n2nc(C(C)(C)C)cc2NC(=O)Nc2ccc(CC3CCN(C(=O)c4ccc(CO)cc4)CC3)cc2)cc1` [Compound A315, 1-(5-tert-Butyl-2-p-tolyl-2H-pyrazol-3-yl)-3-{4-[1-(4-hydroxymethyl-benzoyl)-piperidin-4-ylmethyl]-phenyl}-urea], for which the IC50 lay in the range of 0.01 to 0.5 µM.

In the case of `COc1ccc(CC(=O)N2CCC(Cc3ccc(NC(=O)Nc4cc(C(C)(C)C)nn4-c4ccc(C)cc4)cc3)CC2)cc1` [Compound A319, 1-(5-tert-Butyl-2-p-tolyl-2H-pyrazol-3-yl)-3-(4-{1-[2-(4-methoxy-phenyl)-acetyl]-piperidin-4-ylmethyl}-phenyl)-urea], the IC50 lay within 0.01 to 0.5 µM.

Take `Cc1ccc(-n2nc(C(C)(C)C)cc2NC(=O)Nc2ccc(CC3CCN(C(=O)c4cnn(-c5ccccc5)c4C)CC3)cc2)cc1` [Compound A331, 1-(5-tert-Butyl-2-p-tolyl-2H-pyrazol-3-yl)-3-{4-[1-(5-methyl-1-phenyl-1H-pyrazole-4-carbonyl)-piperidin-4-ylmethyl]-phenyl}-urea]: the IC50 was 0.01 to 0.5 µM.

Regarding `Cc1ccc(-n2nc(C(C)(C)C)cc2NC(=O)Nc2ccc(CC3CCN(C(=O)c4ccc(N)nc4)CC3)cc2)cc1` [Compound A331A, 1-{4-[1-(6-Amino-pyridine-3-carbonyl)-piperidin-4-ylmethyl]-phenyl}-3-(5-tert-butyl-2-p-tolyl-2H-pyrazol-3-yl)-urea], the IC50 lay in the range of 0.01 to 0.5 µM.

As to `Cc1ccc(-n2nc(C(C)(C)C)cc2NC(=O)Nc2ccc(CC3CCN(C(=O)c4ccc(Cl)nc4)CC3)cc2)cc1` [Compound A332, 1-(5-tert-Butyl-2-p-tolyl-2H-pyrazol-3-yl)-3-{4-[1-(6-chloro-pyridine-3-carbonyl)-piperidin-4-ylmethyl]-phenyl}-urea], the IC50 fell in the range of 0.01 to 0.5 µM.

Regarding `Cc1ccc(-n2nc(C(C)(C)C)cc2NC(=O)Nc2ccc(CC3CCN(C(=O)c4ccc5ncsc5c4)CC3)cc2)cc1` [Compound A338, 1-{4-[1-(Benzothiazole-6-carbonyl)-piperidin-4-ylmethyl]-phenyl}-3-(5-tert-butyl-2-p-tolyl-2H-pyrazol-3-yl)-urea], the IC50 lay in the range of 0.01 to 0.5 µM.

For `CCCC(=O)N1CCC(Cc2ccc(NC(=O)Nc3cc(C(C)(C)C)nn3-c3ccc(C)cc3)cc2)CC1` [Compound A343, 1-(5-tert-Butyl-2-p-tolyl-2H-pyrazol-3-yl)-3-[4-(1-butyryl-piperidin-4-ylmethyl)-phenyl]-urea], the IC50 lay within 0.01 to 0.5 µM.

As for `Cc1ccc(-n2nc(C(C)(C)C)cc2NC(=O)Nc2ccc(CC3CCN(C(=O)CC4CCCC4)CC3)cc2)cc1` [Compound A349, 1-(5-tert-Butyl-2-p-tolyl-2H-pyrazol-3-yl)-3-{4-[1-(2-cyclopentyl-acetyl)-piperidin-4-ylmethyl]-phenyl}-urea], the IC50 was in the range of 0.01 to 0.5 µM.

On to `Cc1ccc(-n2nc(C(C)(C)C)cc2NC(=O)Nc2ccc(CC3CCN(C(=O)CCc4ccccc4)CC3)cc2)cc1` [Compound A354, 1-(5-tert-Butyl-2-p-tolyl-2H-pyrazol-3-yl)-3-{4-[1-(3-phenyl-propionyl)-piperidin-4-ylmethyl]-phenyl}-urea], for which the IC50 is 0.01 to 0.5 µM.

With `Cc1ccc(-n2nc(C(C)(C)C)cc2NC(=O)Nc2ccc(CC3CCN(C(=O)Cc4c[nH]c5ccccc45)CC3)cc2)cc1` [Compound A358, 1-(5-tert-Butyl-2-p-tolyl-2H-pyrazol-3-yl)-3-{4-[1-(2-1H-indol-3-yl-acetyl)-piperidin-4-ylmethyl]-phenyl}-urea], the IC50 was 0.01 to 0.5 µM.

With `Cc1ccc(-n2nc(C(C)(C)C)cc2NC(=O)Nc2ccc(CC3CCN(C(=O)c4ccc5cc[nH]c5c4)CC3)cc2)cc1` [Compound A362, 1-(5-tert-Butyl-2-p-tolyl-2H-pyrazol-3-yl)-3-{4-[1-(1H-indole-6-carbonyl)-piperidin-4-ylmethyl]-phenyl}-urea], the IC50 was in the range of 0.01 to 0.5 µM.

On to `Cc1ccc(-n2nc(C(C)(C)C)cc2NC(=O)Nc2ccc(CC3CCN(C(=O)c4cccc(Nc5nc(C)cc(C)n5)c4)CC3)cc2)cc1` [Compound A371, 1-(5-tert-Butyl-2-p-tolyl-2H-pyrazol-3-yl)-3-(4-{1-[3-(4,6-dimethyl-pyrimidin-2-ylamino)-benzoyl]-piperidin-4-ylmethyl}-phenyl)-urea], for which the IC50 lay within 0.01 to 0.5 µM.

For the compound `Cc1ccc(-n2nc(C(C)(C)C)cc2NC(=O)Nc2ccc(CC3CCN(C(=O)c4ccccn4)CC3)cc2)cc1` [Compound A380, 1-(5-tert-Butyl-2-p-tolyl-2H-pyrazol-3-yl)-3-{4-[1-(pyridine-2-carbonyl)-piperidin-4-ylmethyl]-phenyl}-urea], the IC50 was in the range of 0.01 to 0.5 µM.

Regarding `Cc1ccc(-n2nc(C(C)(C)C)cc2NC(=O)Nc2ccc(CC3CCN(C(=O)c4ccc5ccccc5n4)CC3)cc2)cc1` [Compound A383, 1-(5-tert-Butyl-2-p-tolyl-2H-pyrazol-3-yl)-3-{4-[1-(quinoline-2-carbonyl)-piperidin-4-ylmethyl]-phenyl}-urea], the IC50 fell in the range of 0.01 to 0.5 µM.
